One compound from patent US7078022B2, “Sunscreen compositions and methods of use thereof” (Avon Products, Inc., priority 2002, dated 2006) can be followed below.

Counter-ions that a name gives are not always drawn.

Series [1] can be described thus: UV spectrum (UV absorbance, FIG. 1). In kind it is physicochemical. The source says:
FIG. 1 is a Ultraviolet (UV) spectrum showing the UV absorbance of 3-[2-(4-diethylaminophenyl)-2-oxoethyl]thiazolium salt.
FIG. 1 provides the UV spectrum for 3-[2-(4-diethylaminophenyl)-2-oxoethyl]thiazolium salt. […] The maximum UV absorption occurs at a wavelength of 350 nm.

In series [2] the test system is skin. The series can be described thus: Skin elasticity and wrinkling. The following applies: no method or data given.

Turning to `CCN(CC)c1ccc(C(=O)C[n+]2ccsc2)cc1` [3-[2-(4-diethylaminophenyl)-2-oxoethyl]thiazolium salt], in series [1], the “wavelength of maximum UV absorption” value turned out to be 350 nm. Moreover, the UV absorbing properties entry in series [1] (UV-A range) was “excellent UV absorber, particularly in the UV-A range”. Also, in series [2], the elasticity of skin entry is “improve the elasticity” and the wrinkling of skin result was “reduce the wrinkling of skin”.
